Data on 5 molecules can be found in ChEMBL document CHEMBL1143128, “Imidazo[1,2-a]pyridine derivatives as inhibitors of TNF-alpha expression in T cells” (Bioorg Med Chem, 2008).

Each structure is given as a SMILES string. Values after ≈ are worked out from the molar mass of the structure shown. Active and inactive are the calls of the source. The calls are words filed in the database; no cut-off is given here.

For assay [1], the system named is HeLa. In words: Cytotoxicity against human HeLa S3 cells after 48 hrs. Format: functional.
The subject of assay [2] is Jurkat. In words: Cytotoxicity against human Jurkat cells after 48 hrs. Format: functional.
Assay [3] has as its system Jurkat. In words: Inhibition of TPA/ionomycin-stimulated human TNFalpha promoter expression in human Jurkat T cells at 55 uM by luciferase reporter gene assay relative to control. The assay is classed as functional. Also noted: scale not given: the % may be the effect or the level left. In general terms: Reporter assays use an easily measured gene product as a stand-in for the process of interest.

In a further assay the test system is HL-60. In words: Cytotoxicity against human HL60 cells after 48 hrs. The assay is classed as functional. Conditions: HL-60, 48 h.
Assay [4] in a line: Cytotoxicity against human COLO320 cells after 48 hrs. Conditions: COLO 320, 48 h. The assay is classed as functional.
For assay [5], the system named is U-937. In words: Cytotoxicity against human U937 cells after 48 hrs. Conditions: U-937, 48 h. Format: functional.
For assay [6], the system named is HepG2. In words: Cytotoxicity against human HepG2 cells after 48 hrs. Conditions: HepG2, 48 h. The assay is classed as functional.
The test system of assay [7] is Jurkat. In words: Inhibition of TPA/ionomycin-stimulated human TNFalpha promoter expression in human Jurkat T cells by luciferase reporter gene assay. Format: functional, cell-based.
The test system of assay [8] is RAW. In words: Cytotoxicity against mouse RAW […] cells after 48 hrs. The assay is classed as functional.
The subject of assay [9] is HeLa. In words: Inhibition of TPA-stimulated AP1 gene promoter expression in human HeLa S3 cells by SEAP reporter gene assay. The assay is classed as functional, cell-based.
Assay [10] has as its target MAP kinase p38 (Homo sapiens) (UniProt O15264+Q15759+Q16539+P53778). In words: Inhibition of TPA/ionomycin-induced p38 kinase phosphorylation in human Jurkat cells upto 10 ug/ml by Western blotting. Format: cell-based. (In general: In western blotting, separated proteins are transferred to a membrane and probed.)
The subject of assay [11] is U-937. In words: Inhibition of TPA-stimulated TNFalpha production in human U937 cells. The assay is classed as functional, cell-based.
Assay [12] relates to HepG2. In words: Inhibition of IL6-stimulated IL6 gene promoter expression in human HepG2 cells by SEAP reporter gene assay. The assay is classed as functional, cell-based.
The subject of assay [13] is RAW. In words: Inhibition of LPS/IFN-gamma-induced COX2 gene expression in mouse RAW 264.7 cells. Format: functional, cell-based.
Assay [14] relates to Jurkat. In words: Inhibition of TPA-stimulated NF-AT/AP1 gene promoter expression in human Jurkat cells by SEAP reporter gene assay. Format: functional, cell-based.
Assay [15] deals with Jurkat. In words: Inhibition of TPA-stimulated COX2 gene promoter expression in human Jurkat cells by luciferase reporter gene assay. Format: functional, cell-based.
For assay [16], the system named is Jurkat. In words: Inhibition of TPA-stimulated NF-kappaB gene promoter expression in human Jurkat cells by SEAP reporter gene assay. The assay is classed as functional, cell-based.
The target in assay [17] is Mitogen-activated protein kinase 1 (Homo sapiens) (UniProt P28482). In words: Inhibition of TPA/ionomycin-induced ERK2 phosphorylation in human Jurkat cells upto 10 ug/ml by Western blotting. Format: cell-based.
In assay [18] the test system is RAW. In words: Inhibition of LPS/IFN-gamma-induced iNOS gene expression in mouse RAW 264.7 cells. Format: functional, cell-based.
Assay [19] has as its system HeLa. In words: Inhibition of IFN-alpha-stimulated GAS/ISRE gene promoter expression in human HeLa S3 cells by SEAP reporter gene assay. The assay is classed as functional, cell-based.
Assay [20] addresses Mitogen-activated protein kinase 3 (Homo sapiens) (UniProt P27361). In words: Inhibition of TPA/ionomycin-induced ERK1 phosphorylation in human Jurkat cells upto 10 ug/ml by Western blotting. The assay is classed as cell-based.

Mitogen-activated protein kinase 1 (Homo sapiens), sequence (P28482 whole entry): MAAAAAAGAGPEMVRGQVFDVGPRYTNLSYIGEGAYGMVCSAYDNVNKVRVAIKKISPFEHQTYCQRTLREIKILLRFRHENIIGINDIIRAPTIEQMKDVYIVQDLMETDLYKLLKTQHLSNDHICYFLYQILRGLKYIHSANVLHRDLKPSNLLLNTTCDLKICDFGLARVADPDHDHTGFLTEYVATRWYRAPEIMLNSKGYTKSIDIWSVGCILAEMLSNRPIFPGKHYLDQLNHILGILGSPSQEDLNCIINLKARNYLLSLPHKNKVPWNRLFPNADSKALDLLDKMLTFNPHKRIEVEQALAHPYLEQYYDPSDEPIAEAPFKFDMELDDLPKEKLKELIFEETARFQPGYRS
Mitogen-activated protein kinase 3 (Homo sapiens), sequence (P27361 whole entry): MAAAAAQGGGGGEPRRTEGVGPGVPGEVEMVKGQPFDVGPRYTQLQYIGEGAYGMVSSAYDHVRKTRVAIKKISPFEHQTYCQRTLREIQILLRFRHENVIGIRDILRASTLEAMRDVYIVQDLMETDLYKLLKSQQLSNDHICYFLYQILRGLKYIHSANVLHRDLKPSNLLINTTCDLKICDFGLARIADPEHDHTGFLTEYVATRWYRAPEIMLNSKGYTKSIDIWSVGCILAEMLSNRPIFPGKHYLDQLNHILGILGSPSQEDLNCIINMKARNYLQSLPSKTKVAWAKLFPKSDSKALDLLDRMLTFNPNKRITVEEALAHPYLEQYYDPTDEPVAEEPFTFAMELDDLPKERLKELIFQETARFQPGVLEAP

For the molecule `CCCCCCCCCCCC(=O)[C@]1(O)C[C@H](C(=O)OCC)C(C(=O)OCC)=C2N(Cc3ccccc3)CCN21`, the CC50 (in general, the concentration giving 50% cytotoxicity) with HeLa [1] is 10 µg/mL (≈ 18 µM); with Jurkat [2], 10 µg/mL (≈ 18 µM); in the assay with HL-60, 10 µg/mL (≈ 18 µM); in [4] it was 10 µg/mL (≈ 18 µM); in the assay on U-937 [5], 10 µg/mL (≈ 18 µM); in the assay with HepG2 [6], 50 µg/mL (≈ 89.8 µM). In the assay with RAW [8], this molecule displayed a CC50 of 5 µg/mL (≈ 8.98 µM). For the same molecule, the CC90 in the assay on HeLa [1] is 50 µg/mL (≈ 89.8 µM); with Jurkat [2], 50 µg/mL (≈ 89.8 µM); with HL-60, 25 µg/mL (≈ 44.9 µM); in [4] it was greater than 50 µg/mL; with U-937 [5], 25 µg/mL (≈ 44.9 µM); in the assay with RAW [8], 25 µg/mL (≈ 44.9 µM). In the assay on Jurkat [3], this molecule yielded an Activity of 25%. Further, in the assay with Jurkat [7], inhibition was half-maximal at 9.5 µM (IC50).

Regarding `CCCCCCCCCCCC(=O)[C@]1(O)C[C@H](C(=O)OC)C(C(=O)OCC)=C2N(Cc3ccccc3)CCN21`, the IC50 (commonly the point on the concentration scale where inhibition reaches its midpoint) in the assay with HeLa [9] worked out at 4.6 µM; with U-937 [11] it was 4.6 µM; in the assay with HepG2 [12], 18.4 µM; with Jurkat [14] it was 4.6 µM; in the assay on Jurkat [15], 4.6 µM; in the assay with Jurkat [16] it was 4.6 µM. Besides, the half-maximal inhibitory concentration (IC50) in the assay on Jurkat [7] turned out to be 3.6 µM; with HeLa [19] it was 4.6 µM. The result (in [10]; in the assay on RAW [13]; in assay [17]; in the assay with RAW [18]; in assay [20]) was inactive. The CC50 amounted to 10 µg/mL (≈ 18.4 µM) in the assay with HeLa [1]; 10 µg/mL (≈ 18.4 µM) with Jurkat [2]; 10 µg/mL (≈ 18.4 µM) with HL-60; 10 µg/mL (≈ 18.4 µM) in [4]; 10 µg/mL (≈ 18.4 µM) with U-937 [5]; 50 µg/mL (≈ 92.1 µM) in the assay with HepG2 [6]. In addition, in the assay on RAW [8], the midpoint of cytotoxicity, the CC50, lay at 5 µg/mL (≈ 9.21 µM). Moreover, the CC90 was determined as 25 µg/mL (≈ 46.1 µM) in the assay on HeLa [1]; 50 µg/mL (≈ 92.1 µM) in the assay on Jurkat [2]; 25 µg/mL (≈ 46.1 µM) in the assay on HL-60; 50 µg/mL (≈ 92.1 µM) in assay [4]; 25 µg/mL (≈ 46.1 µM) in the assay on U-937 [5]; 25 µg/mL (≈ 46.1 µM) with RAW [8].

Consider `CCCCCCCCCCCC(=O)C(=O)/C=C/C(=O)O`, for which the outcome with Jurkat [7] was inactive.

As for `CCCCCCCCCCCC(=O)[C@]1(O)C[C@H](C(=O)O)C(C(=O)OCC)=C2N(Cc3ccccc3)CCN21`, the CC50 in the assay with HeLa [1] was 25 µg/mL (≈ 47.3 µM); in the assay with Jurkat [2] it was 10 µg/mL (≈ 18.9 µM); in the assay with HL-60, 10 µg/mL (≈ 18.9 µM); in [4] it was 10 µg/mL (≈ 18.9 µM); with U-937 [5], 10 µg/mL (≈ 18.9 µM); in the assay with HepG2 [6], greater than 50 µg/mL. Further, in the assay on RAW [8], the CC50 came to 10 µg/mL (≈ 18.9 µM). For the same molecule, the CC90 in the assay on Jurkat [2] is 50 µg/mL (≈ 94.6 µM); in the assay with HL-60, 50 µg/mL (≈ 94.6 µM); in assay [4], 50 µg/mL (≈ 94.6 µM); in the assay on U-937 [5], 25 µg/mL (≈ 47.3 µM); in the assay on RAW [8] it was 50 µg/mL (≈ 94.6 µM). Besides, inhibition in the assay with Jurkat [7] was half-maximal at 9.5 µM (IC50).

The molecule `CCOC(=O)/C=C1\NCCN1Cc1ccccc1` yielded an IC50 in the assay with U-937 [11] of 10 µg/mL.
